Reference: patent US20240335444A1, “MODULATORS OF BCL6 PROTEOLYSIS AND ASSOCIATED METHODS OF USE” (Arvinas Operations, Inc., priority 2023, published 2024)

How the values were obtained:
BCL6 protein [1] = target: T1, BCL6 protein (Homo sapiens, UniProt P41182); assay: Tumor lysate BCL6 protein levels in OCI-Ly7 xenograft (western blotting); assay type: in vivo, mice; parameters: from tissue; host or cells: subcutaneous xenograft tumors of OCI-Ly1, OCI-Ly7, SU-DHL-2 or OCI-Ly10 cells in mice; details: 16-hours post-last dose (FIG. 8C)
Protocol: (§1) Mice bearing subcutaneous tumors were orally (po) administered vehicle or Compound A at 1, 3, 10, or 30 mg/kg daily for 13 days (qd×13). Dosing began with tumors at an average of 130 mm^3. […] FIG. 8C depicts tumor lysate BCL6 protein levels 16-hours post-last dose analyzed by western blotting. Individual tumor BCL6 levels are shown in a scatter plot, mean is represented by the bar, determined by densitometry, normalized to GAPDH loading controls, and shown as a percentage of vehicle. Percent BCL6 degradation (%) relative to vehicle is shown above each arm. Statistical analyses were performed using 2-way ANOVA: p<0.0001 (****). Error bars represent standard error of the mean (±SEM).

OCI-Ly1 = assay: Tumor growth of DLBCL cell line derived xenograft model OCI-Ly1; assay type: in vivo, mice; details: OCI-Ly1 xenograft, dosing dependent
Protocol: Mice bearing subcutaneous tumors were orally (po) administered vehicle or Compound A at 1, 3, 10, or 30 mg/kg daily for 22 days (qd×22). Dosing began with tumors at an average of 140 mm^3. […] Statistical analyses were performed using 2-way ANOVA: p<0.0001 (****). Error bars represent standard error of the mean (±SEM).
Mice bearing subcutaneous tumors were orally (po) administered vehicle or Compound A at 1, 3, or 10 mg/kg bi-daily for 23 days (bid×23). Dosing began with tumors at an average of 170 mm^3. […] FIG. 7C depicts tumor lysate BCL6 protein levels 16-hours post-last dose analyzed by western blotting. Individual tumor BCL6 levels are shown in a scatter plot, mean is represented by the bar, determined by densitometry, normalized to GAPDH loading controls, and shown as a percentage of vehicle. Percent BCL6 degradation (%) relative to vehicle is shown above each arm. Statistical analyses were performed using 2-way ANOVA: p<0.0001 (****). Error bars represent standard error of the mean (±SEM).

OCI-Ly7 = assay: Tumor growth of DLBCL cell line derived xenograft model OCI-Ly7; assay type: in vivo, mice; details: po 1, 3, 10 or 30 mg/kg daily for 13 days (qd×13), dosing dependent
Protocol: as §1

OCI-Ly10 = assay: Tumor growth of DLBCL cell line derived xenograft model OCI-Ly10; assay type: in vivo, mice; details: po 3, 10 or 30 mg/kg bid×28 or 30 mg/kg qd×28, dosing dependent
Protocol: (§2) Mice bearing subcutaneous tumors were orally (po) administered vehicle or Compound A at 3, 10, or 30 mg/kg bi-daily for 28 days (bid×28) or 30 mg/kg daily for 28 days (qd×28). Dosing began with tumors at an average of 190 mm^3. […] FIG. 10C depicts tumor lysate BCL6 protein levels 16-hours post-last dose analyzed by western blotting. Individual tumor BCL6 levels are shown in a scatter plot, mean is represented by the bar, determined by densitometry, normalized to GAPDH loading controls, and shown as a percentage of vehicle. Percent BCL6 degradation (%) relative to vehicle is shown above each arm. Statistical analyses were performed using 2-way ANOVA: p<0.05 (*), p<0.0001 (****). Error bars represent standard error of the mean (±SEM).

LY3148 = assay: PDX model of Burkitt's lymphoma (LY3148); assay type: in vivo, NOD/SCID or BALB/c Nude Mice; details: 30 mg/kg PO QD×21
Protocol: (§3) HuPrime® Lymphoma Xenograft Models in NOD/SCID or BALB/c Nude Mice, 4/group, were dosed orally (per os, PO) daily for 21 days (QD×21) and tumor measurements were acquired twice per week. […] Data points represent the mean per group and error bars the standard error of the mean.

BCL6 protein [2] = target: T1, BCL6 protein; assay: Tumor lysate BCL6 protein levels in OCI-Ly10 xenograft (western blotting); assay type: in vivo, mice; parameters: from tissue; host or cells: subcutaneous xenograft tumors of OCI-Ly1, OCI-Ly7, SU-DHL-2 or OCI-Ly10 cells in mice; details: all dose levels, 16-hours post-last dose (FIG. 10C)
Protocol: as §2

[3] = Body weight of mice in the PDX models; assay type: in vivo, NOD/SCID or BALB/c Nude Mice; details: 30 mg/kg PO QD×21
Protocol: as §3

CNC(=O)COc1cc2cc(Nc3nc(N4CCC(O[C@H]5C[C@H](N6CCC(c7ccc8c(c7F)CN(C7CCC(=O)NC7=O)C8=O)CC6)C5)CC4)ncc3Cl)ccc2n(C(C)C)c1=O (some centres unmarked) [Compound A, 2-({6-[(5-chloro-2-{4-[(1r,3r)-3-{4-[2-(2,6-dioxopiperidin-3-yl)-4-fluoro-1-oxo-2,3-dihydro-1H-isoindol-5-yl]piperidin-1-yl}cyclobutoxy]piperidin-1-yl}pyrimidin-4-yl)amino]-2-oxo-1-(propan-2-yl)-1,2-dihydroquinolin-3-yl}oxy)-N-methylacetamide]
Tumor lysate BCL6 protein level (BCL6 protein [1]): dose-dependent degradation of BCL6 protein | Tumor growth (OCI-Ly1; po 1, 3, 10 or 30 mg/kg daily for 22 days (qd×22)): inhibits the tumor growth | Tumor growth (OCI-Ly1; po 1, 3 or 10 mg/kg bi-daily for 23 days (bid×23)): inhibits the tumor growth | Tumor growth (OCI-Ly7): inhibits the tumor growth | Tumor growth (OCI-Ly10): inhibits the tumor growth | Change in mean tumor volume (LY3148): tumor regressions | Tumor lysate BCL6 protein level (BCL6 protein [2]): degraded BCL6 protein | Body weight loss [3]: No significant body weight loss
